Measured values published in US20100227381A1, “ENHANCED BIODEGRADATION OF NON-AQUEOUS PHASE LIQUIDS USING SURFACTANT ENHANCED IN-SITU CHEMICAL OXIDATION” (VERUTEK TECHNOLOGIES, INC., priority 2007, published 2010).

Tests used:
[1] = pure compound in water; cited from earlier work
[2] = Chlorinated DNAPL dissolution in control sample without cosolvent-surfactant (equilibrium solubility in water in presence of the DNAPL); settings: 25 °C, thermodynamic from solid
Experimental: In order to test the treatment of chlorinated compounds, a chlorinated solvent DNAPL was obtained from a site consisting of chlorinated solvents and chlorinated semi-volatile compounds. […]
The data collected under the experimentation conditions presented in Table 2 were obtained at 25° C. with 60 rpm shaker table mixing for 48 hours. After the shaker was shut off, the samples sat quietly for 5 minutes before the supernatant was analyzed. DNAPLmax represents the maximum concentration of DNAPL that may dissolve, given the mass of DNAPL and the volume of water.
Samples from experiment number 1, 3, 5, 7, and 8 (control) were analyzed. Additionally, measurements of interfacial tension (IFT) were conducted on the samples after the 48-hour period.

| Compound | Pure Compound Aqueous Solubility [1] | solubility at 48 h [2] [µg/mL] |
| --- | --- | --- |
| ClC(Cl)=C(Cl)C(Cl)=C(Cl)Cl [Hexachlorobutadiene (HCBD), Hexachlorobutadiene] | 0.005 µg/mL | – |
| ClC(Cl)(Cl)C(Cl)(Cl)Cl [Hexachloroethane (HCE), Hexachloroethane] | 50 µg/mL | – |
| Clc1c(Cl)c(Cl)c2c(Cl)c(Cl)c(Cl)c(Cl)c2c1Cl [Octachloronaphthalene (OCN), Octachloronaphthalene] | insoluble | – |
| ClC(Cl)=C(Cl)Cl [Tetrachloroethene (PCE), Tetrachloroethene] | 800 µg/mL | 140 |
